Results published in EP0502418A1, “Use of levemopamil for the manufacture of a medicament for the treatment of alcohol abuse” (priority 1991, dated 1992).

How the values were obtained:
[1] = tested on: alcohol preferring Wistar rats; assay: Alcohol, water, total fluid and food intake in alcohol preferring (P) rats, single dose level (Example 5); format: in vivo
Method: Levemopamil was administered in eight selectively-bred adult male alcohol preferring Wistar rats (hereinafter "P") obtained from the Indiana Alcohol Research Center at the University of Indiana School of Medicine.
These lines of rats have been developed genetically through selected breeding by Lumeng et al., New strains of rats with alcohol preference and nonpreference. In: Thurman et al., Eds. Alcohol and Aldehyde Metabolizing Systems. Vol. 3. New York: Academic Press, 1977. pp. 537-544. The P rats prefer to drink at least 5g/Kg body weight/day of a 10% (v/v) ethanol solution in a free-choice situation with food and water available. These rats have been widely used as an animal model of alcoholism. See, Tabakoff et al., Biochemical Pharmacology of Alcohol. Meltzer, Ed. In: Psychopharmacology: The Third Generation of Progress. New York: Raven Press, 1978. pp.1521-1526.
The criteria for classification of P rats was that the average daily intake of ethanol (10%v/v) in P rats should be equal or greater than 5g/Kg body weight/day and the ethanol to water intake ratio should be equal or greater than 2:1.
After establishing a stable baseline for alcohol and water intake, Each animal was injected twice (9:30 and 16:30 hours) with a 10 mg/Kg dosage of levemopamil or an equal volume of the vehicle. Water, alcohol and food intake were monitored.

P rats = assay: Alcohol and water intake in P rats, three doses of levemopamil (Example 6); format: in vivo
Method: Levemopamil and a vehicle were administered in eight P rats obtained from the Indiana Alcohol Research Center at the University of Indiana School of Medicine, as described in Example 5. After establishing a stable baseline for alcohol and water intake, Each animal was injected twice (9:15 and 16:00 hours) with either one of three doses of levemopamil (3.3, 10, and 20 mg/Kg) or an equal volume of the vehicle (a solution of 1 ml absolute ethanol and 4 ml distilled water. Water and alcohol intake were monitored. The amount of alcohol and water intake was recorded twice daily before each administration of vehicle or levemopamil and continued during the drug washout periods.

[2] = compared with verapamil; cited from earlier work
[3] = in vivo; cited from earlier work

## CC(C)C(C#N)(CCCN(C)CCc1ccccc1)c1ccccc1 (centres unmarked) [levemopamil, 2-isopropyl-5-(methylphenethylamino)-2-phenylvaleronitrile]
[1]; 10 mg/Kg injected twice (9:30 and 16:30 hours), vs baseline and vehicle, Figure 1
  alcohol intake or consumption: significantly attenuated
[1]; 10 mg/Kg injected twice, Figure 4
  food intake: unaffected
[1]; 10 mg/Kg injected twice, vs vehicle and base-line, Figure 2
  water intake: significantly increased
[1]; 10 mg/Kg injected twice, vs vehicle and base-line, Figure 3
  Total fluid intake: decreased
P rats; 10mg/Kg and 20 mg/Kg twice daily over one day, vs vehicle and base-line, Figure 5
  intake of ethanol: significantly reduced
P rats; 10mg/Kg and 20 mg/Kg twice daily over one day, vs vehicle and base-line, Figure 6
  intake of water: significantly increased
P rats; drug washout periods after dosing
  Alcohol intake during the drug washout periods: returned to base-line levels
P rats; low dose 3.3mg/Kg, injected twice, Figure 5
  ethanol intake: did not induce a significant change
P rats; low dose 3.3mg/Kg, injected twice, Figure 6
  water intake: did not induce a significant change
[2]
  cerebral availability: significantly higher than that of the comparison compound verapamil
[3]
  passage of the blood/brain barrier by brain uptake index (BUI): more rapidly and in considerably larger amounts than does verapamil
